Experimental data as given in patent US6337069B1, “Method of treating rhinitis or sinusitis by intranasally administering a peptidase” (B.M.R.A. Corporation B.V., priority 2001, dated 2002).
Ends that are not written are not given here.

Assays:
[1] = Basal vascular parameters in the anaesthetised pig in vivo (blood flow, heart rate, MAP, vascular resistance)
Procedure: (§1) Each experiment lasted approximately 8 hours.
The basal blood flow in the internal maxillary artery of the pig under control conditions was 4.92+/−0.7 ml min^−1 kg^−1. After section of the sympathetic nerves on the left side, the homolateral nasal arterial flow was 6.1+/−0.26 ml min^−1 kg^−1 (representing a 19.34% +/−4.3% increase). The mean arterial blood pressure (MAP) was not modified by the section of the sympathetic nerves. […] Sympathetic nerve stimulation at 10 Hz for 5 minutes reduced the blood flow in the maxillary artery from 4.92+/−0.7 ml min^−1 kg^−1 to 1.40+/−0.47 ml min^−1 kg^−1, representing an […] of 71.5% and lasting more than 6 minutes. The i.a. infusion of phenoxybenzamine induced a MAP reduction of 10+/−2%.

[2] = system: vasodilation evoked by capsaicin; experiment: Capsaicin-evoked vasodilation in pig nasal mucosa in vivo
Procedure: Experiments were performed on pigs of both sexes (body weight 18-25 kg). All animals were premedicated with atropine (0.05 mg/kg) and ketamine (20 mg/kg i.m.). They were anesthesized with thiopentone (5 mg/kg i.v.). After tracheostomy, animals were intubated and artificially ventilated by a volume regulated ventilator. During surgery, animals were given a continuous i.v. infusion of Ringer's solution, pancuronium bromide (0.25 mg/kg) and heparin. […] Catheters were placed in the femoral artery for systemic blood pressure and heart rate monitoring and in the femoral vein for thiopentone, heparin and fluid administration (300 ml/hr). The contralateral femoral vein was canulated for blood sampling. […] Selective recording of the nasal arterial blood flow was performed with a Transonic flow probe (probe 2.4RB143) of 2.4 mm diameter placed around the sphenopalatine artery. The flow probe was connected to a T202S ultrasonic blood flowmeter. All the arterial branches situated downstream of the flow probe were ligated and cut except for the superficial temporal artery which was cannulated with a PE 90 catheter for infusions or injections.
(§2) Variations in the area under the curve (AUC) of the sphenopalatine artery vascular resistance (Vr), derived from both mean arterial blood pressure and systemic blood flow curves, were analyzed over time. Durations of the responses of the vascular resistance were compared and all results were expressed in percent of baseline. Vascular parameters were recorded simultaneously using a 6 pen trace recorder.
(§3) All animals were intranasally administered DPIV (50 μg, 26.5 pmoles/kg), subjected to sympathetic nerve stimulation (SNS, 15 V, 5 ms, 10 Hz for 2 minutes) and then infused with histamine (0.1-25 μg), capsacin (0.01-25 μg), bradykinin (0.001-10 μg), SP or its C-terminal fragment SP 5-11, DPPIV, or NK1 antagonist L733060 in the superficial temporal artery under controlled conditions. In each case, the vascular response of the animal was measured. This entire procedure was then repeated after local i.a. pretreatment with the alpha-adrenergic receptor antagonist phenoxybenzanime (1 mg/kg).

[3] = system: histamine vasodilatory effects; experiment: Histamine-evoked vasodilation in pig nasal mucosa in vivo; conditions: no DPPIV
Procedure: as §1

[4] = system: sphenopalatine vascular resistance; experiment: Vasodilator dose-response of SP and SP 5-11 in pig in vivo; conditions: for reduction in SVR: before DPPIV
Procedure: Experiments were performed on pigs of both sexes (body weight 18-25 kg). All animals were premedicated with atropine (0.05 mg/kg) and ketamine (20 mg/kg i.m.). They were anesthesized with thiopentone (5 mg/kg i.v.). After tracheostomy, animals were intubated and artificially ventilated by a volume regulated ventilator. During surgery, animals were given a continuous i.v. infusion of Ringer's solution, pancuronium bromide (0.25 mg/kg) and heparin. Each experiment lasted approximately 8 hours. Catheters were placed in the femoral artery for systemic blood pressure and heart rate monitoring and in the femoral vein for thiopentone, heparin and fluid administration (300 ml/hr). The contralateral femoral vein was canulated for blood sampling. Surgical preparation of the internal maxillary artery was done in accordance with Lacroix (Acta Physiol. Scand. 136:1-63 (1989)). Selective recording of the nasal arterial blood flow was performed with a Transonic flow probe (probe 2.4RB143) of 2.4 mm diameter placed around the sphenopalatine artery. The flow probe was connected to a T202S ultrasonic blood flowmeter. All the arterial branches situated downstream of the flow probe were ligated and cut except for the superficial temporal artery which was cannulated with a PE 90 catheter for infusions or injections.
as §2, §3
Therefore, the same animal was used to perform dose-response curves with SP both before and after pretreatment with DPPIV. A dose-response curve for duration of vasodilation and area under the curve was constructed using doses of SP in the range of 1 pg to 0.1 μg. […] The same animals received 50 μg (530 pmoles) of DPPIV and similar doses of SP were injected. […] Since DPPIV cleaves SP into SP 5-11, experiments were conducted to determine whether SP 5-11 is also capable of decreasing SVR.

[5] = system: SP-evoked vasodilatory response; experiment: Modulation of SP-evoked vasodilation in pig nasal mucosa in vivo; conditions: pretreatment 114 nmoles/kg; all doses of SP used except 100 ng
Procedure: Experiments were performed on pigs of both sexes (body weight 18-25 kg). All animals were premedicated with atropine (0.05 mg/kg) and ketamine (20 mg/kg i.m.). They were anesthesized with thiopentone (5 mg/kg i.v.). After tracheostomy, animals were intubated and artificially ventilated by a volume regulated ventilator. During surgery, animals were given a continuous i.v. infusion of Ringer's solution, pancuronium bromide (0.25 mg/kg) and heparin. Each experiment lasted approximately 8 hours. Catheters were placed in the femoral artery for systemic blood pressure and heart rate monitoring and in the femoral vein for thiopentone, heparin and fluid administration (300 ml/hr). The contralateral femoral vein was canulated for blood sampling. […] Selective recording of the nasal arterial blood flow was performed with a Transonic flow probe (probe 2.4RB143) of 2.4 mm diameter placed around the sphenopalatine artery. The flow probe was connected to a T202S ultrasonic blood flowmeter. […]
Variations in the area under the curve (AUC) of the sphenopalatine artery vascular resistance (Vr), derived from both mean arterial blood pressure and systemic blood flow curves, were analyzed over time. […] Vascular parameters were recorded simultaneously using a 6 pen trace recorder. […]

[6] = SNS and PBZ pretreatment, no DPPIV, capsaicin 8.2×10^−08 moles

Q: With CC(COc1ccccc1)N(CCCl)Cc1ccccc1 (centres unmarked) [phenoxybenzamine] as the compound, how does the MAP reduction ([1]; i.a. infusion of phenoxybenzamine) read?
A: 10+/−2%

Q: And the “reduction of AUC of capsaicin effect” value [2, 6]?
A: 26.6%

Q: What about the “reduction of duration of vasodilation evoked by capsaicin” value [2, 6] of the same compound?
A: 39.9%

Q: What about the “variation of vasodilatory effect of capsaicin” value ([2]; after SNS and PBZ pretreatment, any doses, no DPPIV) of the same compound?
A: no significant variation

Q: Which “reduction in duration of histamine effect vs control” value ([3]; histamine i.a. 1.4×10^−07 moles following SNS 10 Hz 5 minutes) does the source give for NCCc1c[nH]cn1 [Histamine] here?
A: 32%

Q: What about the “reduction in duration of histamine effect vs control” value ([3]; histamine i.a. 5.4×10^−09 moles following SNS 10 Hz 5 minutes) of the same compound?
A: 33%

Q: With “SP 5-11: C-terminal fragment of SP produced by DPPIV cleavage (QQFFGLM; ends and bridges not checked; UniProt P20366 62-68, looked up, fragment)” as the compound, how does the “decrease in SVR” value ([4]; SP 5-11 10 pg) read?
A: 5%

Q: What about the “decrease in SVR” value ([4]; SP 5-11 1 μg) of the same compound?
A: 35%

Q: And the “SP 5-11 less potent than SP at causing vasodilation” value ([4]; pig, in vivo)?
A: at least 100 fold

Q: Which “effect of capsaicin injection on Vr” value ([2]; following SNS, similar to control conditions) does the source give for COc1cc(CNC(=O)CCCCC=CC(C)C)ccc1O [Capsaicin, 8-methyl-N-vanillyl-6-nonenamide] here?
A: dose-dependent decrease of Vr

Q: What does the source list for FC(F)(F)c1cc(CO[C@H]2CCCN[C@H]2c2ccccc2)cc(C(F)(F)F)c1 [L-733060]?
A: vascular effect of the antagonist ([1]; pretreatment with 114 nmoles/kg): vasoconstrictive effect; blockade of SP-induced decrease in SVR [5]: clear inhibition of the SP effect

Q: Which “reduction in SVR” value ([4]; SP 100 pg) does the source give for “SP: substance P, bioactive peptide released by sensory neurons; NK1 agonist” here?
A: 13.1%

Q: What about the “reduction in SVR” value ([4]; SP 1 ng) of the same compound?
A: 14.9%

Q: What about the “potency of SP relative to SP 5-11 as a vasodilator” value ([4]; based on molarity) of the same compound?
A: 200 fold

Q: What about the vasodilation ([4]; local intraarterial administration of 1 pg SP) of the same compound?
A: 15.1% +/−3.3%

Q: And the vasodilation ([4]; local intraarterial administration of 100 ng SP)?
A: 37.3% +/−3.3%
